Among the data in PubChem BioAssay (NCI) are GI50 and TGI values, retold here.

“And” between values parts separate entries of the source, which are not always exact repeats. Identical values can stand only once.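 The compound was tested at five concentrations on cells cultured in 96-well plates, with a 48-hour exposure period. At the GI50, growth is halved. TGI: concentration producing complete growth inhibition.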

Test systems include SK-MEL-2 melanoma; SR leukemia; SK-OV-3 ovarian; MOLT-4 leukemia; OVCAR-5 ovarian; HOP-62 NSCLC; OVCAR-8 ovarian; SN12C renal; OVCAR-4 ovarian; CAKI-1 renal.
What all share (assay): DTP human tumour cell line panel, 48 h

`O=c1oc2ccc(Cl)cc2c(=O)n1-c1ccc(I)cc1F`: the 50% growth inhibitory concentration (GI50) in the assay on SK-MEL-2 melanoma was 0.116 µM; in the assay with SR leukemia, 0.228 µM; in the assay on SK-OV-3 ovarian, 0.451 µM; in the assay on MOLT-4 leukemia, 0.384 µM; in the assay with OVCAR-5 ovarian it was 3.58 µM; in the assay with HOP-62 NSCLC, 0.855 µM. In addition, the 50% growth inhibitory concentration (GI50) with OVCAR-8 ovarian is 0.323 µM; in the assay on SN12C renal, 0.204 µM; with OVCAR-4 ovarian, 0.225 µM; with CAKI-1 renal, 0.172 µM. Besides, the TGI was 0.945 µM in the assay with SK-MEL-2 melanoma; 5.97 µM in the assay with SR leukemia; 4.31 µM in the assay with SK-OV-3 ovarian; 1.81 µM in the assay with MOLT-4 leukemia; over 100 µM in the assay on OVCAR-5 ovarian; 3.75 µM in the assay on HOP-62 NSCLC. For the same compound, the total growth inhibition concentration (TGI) with OVCAR-8 ovarian is 15 µM; with SN12C renal, 3.07 µM; with OVCAR-4 ovarian it was over 87.2 µM; with CAKI-1 renal, 1.02 µM.
`CCCCCc1c(C)[nH]c(/C=C2\N=C(c3ccc[nH]3)C=C2Oc2ccc(Cl)cc2)c1C`: the GI50 was 0.0578 µM and 0.0293 µM in the assay with SK-MEL-2 melanoma; 0.0372 µM and < 0.01 µM with SR leukemia; 0.308 µM and 0.277 µM with SK-OV-3 ovarian; 0.064 µM in the assay with MOLT-4 leukemia; 0.142 µM and 0.0383 µM in the assay with OVCAR-5 ovarian; 0.148 µM and 0.187 µM with HOP-62 NSCLC. Also, the concentration for 50% growth inhibition (GI50) is 0.16 µM and 0.0296 µM in the assay with OVCAR-8 ovarian; 0.112 µM and 0.0549 µM with SN12C renal; 0.0527 µM and 0.0228 µM in the assay with OVCAR-4 ovarian; 0.148 µM and 0.0343 µM with CAKI-1 renal. Further, the TGI was 0.23 µM and 0.108 µM in the assay with SK-MEL-2 melanoma; over 100 µM in the assay with SR leukemia; 17.6 µM with SK-OV-3 ovarian; 1.88 µM in the assay with MOLT-4 leukemia; 4.26 µM in the assay with OVCAR-5 ovarian; 14.6 µM in the assay with HOP-62 NSCLC. The TGI in the assay on OVCAR-8 ovarian was 1.98 µM; with SN12C renal, 1.92 µM; with OVCAR-4 ovarian, over 100 µM; with CAKI-1 renal, 0.542 µM and 0.312 µM.
For `Nc1nc(OCc2ccccc2)nc2[nH]ncc12`, the GI50 in the assay with SK-MEL-2 melanoma is 20.3 µM; with SR leukemia it was 5.59 µM; in the assay on SK-OV-3 ovarian, 18.6 µM; in the assay on MOLT-4 leukemia, 24.3 µM; in the assay with OVCAR-5 ovarian, 11.9 µM; in the assay on HOP-62 NSCLC, 19.3 µM. Besides, the GI50 with OVCAR-8 ovarian is over 100 µM; in the assay with SN12C renal, 13.9 µM; with OVCAR-4 ovarian it was 17.5 µM; in the assay on CAKI-1 renal it was 11.1 µM. Besides, the total growth inhibition concentration (TGI) in the assay with SK-MEL-2 melanoma was 47.9 µM; in the assay with SR leukemia, 30.5 µM; in the assay on SK-OV-3 ovarian, 49.8 µM; in the assay with MOLT-4 leukemia, over 100 µM; in the assay on OVCAR-5 ovarian it was 28.2 µM; with HOP-62 NSCLC it was 37.8 µM. Besides, the TGI in the assay on OVCAR-8 ovarian is over 100 µM; in the assay on SN12C renal, 28.5 µM; with OVCAR-4 ovarian, 63.4 µM; in the assay on CAKI-1 renal, 33.2 µM.
In the case of `Cc1cccc(C(C)(C)C)c1NC(=O)C(=O)C(c1cnc2ccccc2n1)[N+](=O)[O-]` (stereo not given), the concentration for total growth inhibition (TGI) in the assay on SK-MEL-2 melanoma, in the assay on SR leukemia, in the assay on SK-OV-3 ovarian, in the assay on MOLT-4 leukemia, in the assay with OVCAR-5 ovarian and in the assay on HOP-62 NSCLC was over 100 µM each time. The total growth inhibition concentration (TGI) in the assay with OVCAR-8 ovarian, with SN12C renal, with OVCAR-4 ovarian and in the assay with CAKI-1 renal was over 100 µM in each case.
For the compound `NCc1ccc(-n2c(-c3nonc3N)nc3cnccc32)cc1`, the GI50 in the assay with SK-MEL-2 melanoma is over 25 µM; in the assay on SR leukemia, 2.67 µM; in the assay with SK-OV-3 ovarian, over 25 µM; in the assay with MOLT-4 leukemia, 12.3 µM; in the assay on OVCAR-5 ovarian it was 11.7 µM; with HOP-62 NSCLC, over 14.4 µM. The GI50 in the assay on OVCAR-8 ovarian is 6.76 µM; with SN12C renal, 7.61 µM; in the assay with OVCAR-4 ovarian, over 25 µM; in the assay with CAKI-1 renal, 2.27 µM. Further, the TGI in the assay with SK-MEL-2 melanoma, in the assay with SR leukemia, in the assay on SK-OV-3 ovarian, in the assay with MOLT-4 leukemia, with OVCAR-5 ovarian and with HOP-62 NSCLC was over 25 µM throughout. Also, the TGI with OVCAR-8 ovarian, in the assay on SN12C renal, in the assay with OVCAR-4 ovarian and in the assay with CAKI-1 renal was over 25 µM in each case.
Consider `Oc1cc(Cl)ccc1Oc1ccc(Cl)cc1Cl`, for which the GI50 was 2.41 µM with SK-MEL-2 melanoma; 3.46 µM with SR leukemia; 2.97 µM in the assay on SK-OV-3 ovarian; 3.74 µM with MOLT-4 leukemia; 3.37 µM in the assay on OVCAR-5 ovarian; 2.27 µM with HOP-62 NSCLC. In addition, the GI50 in the assay on OVCAR-8 ovarian was 2.81 µM; in the assay on SN12C renal, 3.12 µM; in the assay with OVCAR-4 ovarian it was 2.79 µM; in the assay with CAKI-1 renal it was 4.84 µM. Further, the TGI in the assay with SK-MEL-2 melanoma was determined as 5.01 µM; with SR leukemia, 10.9 µM; in the assay on SK-OV-3 ovarian, 7.86 µM; in the assay with MOLT-4 leukemia it was 11.3 µM; in the assay on OVCAR-5 ovarian it was 12.1 µM; with HOP-62 NSCLC, 5.16 µM. The TGI in the assay on OVCAR-8 ovarian turned out to be 9.18 µM; with SN12C renal, 11.4 µM; in the assay on OVCAR-4 ovarian it was 9.41 µM; in the assay on CAKI-1 renal it was 17.8 µM.
For `CCc1c[nH]c2ncnc(N3CC[C@@](N)(CNC(=O)c4ccc(F)cc4F)C3)c12`, the GI50 in the assay on SK-MEL-2 melanoma is 35.5 µM; in the assay on SR leukemia, 16.4 µM; with SK-OV-3 ovarian it was 32 µM; in the assay on MOLT-4 leukemia, 18.7 µM; in the assay on OVCAR-5 ovarian, 80 µM; in the assay with HOP-62 NSCLC it was 30.5 µM. Also, the GI50 in the assay on OVCAR-8 ovarian was 48.1 µM; in the assay on SN12C renal it was 32.1 µM; in the assay on OVCAR-4 ovarian, 77.2 µM; with CAKI-1 renal, 18.7 µM. Moreover, the total growth inhibition concentration (TGI) with SK-MEL-2 melanoma was over 100 µM; in the assay on SR leukemia, 44.1 µM; in the assay with SK-OV-3 ovarian, over 100 µM; in the assay on MOLT-4 leukemia it was over 81.2 µM; in the assay on OVCAR-5 ovarian it was over 100 µM; with HOP-62 NSCLC, over 100 µM. In addition, the TGI in the assay on OVCAR-8 ovarian was over 100 µM; in the assay with SN12C renal it was over 100 µM; in the assay on OVCAR-4 ovarian, over 100 µM; in the assay on CAKI-1 renal, over 89.8 µM.
As to `COc1cc2cc(Oc3ccc(NC(=O)c4ccc(Cl)c(C(F)(F)F)c4)cc3)c(C)nc2cc1OC`, the GI50 in the assay on SK-MEL-2 melanoma is 18.3 µM; with SR leukemia it was 14.3 µM; in the assay on SK-OV-3 ovarian, 66 µM; with MOLT-4 leukemia, 9.7 µM; with OVCAR-5 ovarian, 55.9 µM; in the assay with HOP-62 NSCLC, 42.6 µM. The GI50 in the assay on OVCAR-8 ovarian was 22.9 µM; in the assay on SN12C renal it was 13.2 µM; with OVCAR-4 ovarian it was 5.58 µM; with CAKI-1 renal it was 4.19 µM. Also, the total growth inhibition concentration (TGI) in the assay with SK-MEL-2 melanoma was 51.1 µM; with SR leukemia, over 100 µM; in the assay on SK-OV-3 ovarian, over 100 µM; in the assay with MOLT-4 leukemia, 70.5 µM; in the assay with OVCAR-5 ovarian, over 100 µM; with HOP-62 NSCLC, over 100 µM. The TGI in the assay on OVCAR-8 ovarian was over 100 µM; in the assay on SN12C renal it was over 100 µM; in the assay with OVCAR-4 ovarian, over 100 µM; in the assay with CAKI-1 renal, 46.2 µM.
